Measurements as given in US20240366589A1, “NHE3-BINDING COMPOUNDS AND METHODS FOR INHIBITING PHOSPHATE TRANSPORT” (Ardelyx, Inc., priority 2013, published 2024).

What was measured:
[1] = system: absorption of sodium from the intestinal lumen; assay: Inhibition of intestinal sodium absorption: urinary sodium (uNa) 16 h after single oral dose in rats; type: in vivo, rat; settings: oral gavage, 16 h post-dose
Procedure: (§1) Inhibition of intestinal sodium and phosphate absorption. Urinary sodium concentration and fecal form were measured to assess the ability of selected example compounds to inhibit the absorption of sodium from the intestinal lumen. Eight-week old Sprague-Dawley rats were purchased from Charles River Laboratories (Hollister, CA), were housed 2 per cage, and acclimated for at least 3 days before study initiation. Animals were fed Harlan Teklad Global 2018 rodent chow (Indianapolis, IN) and water ad libitum throughout the study and maintained in a standard light/dark cycle of 6 AM to 6 PM. On the day of the study, between 4 PM and 5 PM, a group of rats (n=6) were dosed via oral gavage with test compound, or a pharmaceutically acceptable salt thereof, or vehicle (water) at a volume of 10 mL/kg.
(§2) After dose administration animals were placed in individual metabolic cages where they were also fed the same chow in meal form and watered ad libitum. At 16 h post-dose, the urine samples were collected and fecal form was assessed by two independent observations. Fecal forms were scored according to a common scale associated with increasing fecal water to the wettest observation in the cage's collection funnel (1, normal pellet; 2, pellet adhering to sides of collection funnel due to moisture; 3, loss of normal pellet shape; 4, complete loss of shape with a blotting pattern; 5, liquid fecal streams evident). A rat's fecal form score (FFS) was determined by averaging both observational scores for all rats within a group (n=6). The vehicle group average was 1.
For urine samples, the volumes were determined gravimetrically and centrifuged at 3,600×g. The supernatants were diluted 100-fold in deionized Milli-Q water then filtered through a 0.2 μm GHP Pall AcroPrep filter plate (Pall Life Sciences, Ann Arbor, MI) prior to analysis by ion chromatography. Ten microliters of each filtered extract was injected onto a Dionex ICS-3000 ion chromatograph system (Dionex, Sunnyvale, CA). Cations were separated by an isocratic method using 25 mM methanesulfonic acid as the eluent on an IonPac CS12A 2 mm i.d.×250 mm, 8 μm particle size cation exchange column (Dionex). Sodium was quantified using standards prepared from a cation standard mix containing Li^+, Na^+, NH4^+, K^+, Mg^2+, and Ca^2+ (Dionex). The mean mass of sodium urinated for every group in the 16 h period was determined with the vehicle group usually urinating approximately 21 mg sodium. The urine Na (uNa) for rats in the test groups were expressed as a percentage of the vehicle mean and the means were compared to that of the vehicle group by utilizing a one-way analysis of variance coupled with a Dunnett's post hoc test.
Further experiments were performed to test the compounds under the persistent and prompt conditions described above, and to test their effects on urinary excretion of sodium in rats. The latter was performed by orally dosing the compounds in rats (single dose) and measuring urinary Na excretion (as a % of vehicle). The results are indicated as percentage of urinary sodium (UNa %); low values indicate relatively active compounds.

Rat NHE3 = biological target: T1, Rat NHE3 (Rattus norvegicus, UniProt P26433); assay: Cell-based NHE3 activity under prompt conditions (OK cells, BCECF pH recovery), rat NHE3; settings: prompt conditions
T1 construct: expressed in transfected cells; host or cells: Opossum kidney (OK) cells (ATCC), electroporation
Procedure: Cell-based activity under Prompt Conditions. Rat or human NHE3-mediated Na^+-dependent H antiport was measured using a modification of the pH sensitive dye method originally reported by Paradiso (PNAS USA. 81:7436-7440, 1984). Opossum kidney (OK) cells were obtained from the ATCC and propagated per their instructions. The rat NHE3 gene (GenBank M85300) or the human NHE3 gene (GenBank NM_004174.1) was introduced into OK cells via electroporation, and cells were seeded into 96 well plates and grown overnight. Medium was aspirated from the wells, cells were washed twice with NaCl-HEPES buffer (100 mM NaCl, 50 mM HEPES, 10 mM glucose, 5 mM KCl, 2 mM CaCl2, 1 mM MgCl2, pH 7.4), then incubated for 30 min at room temperature with NH4Cl-HEPES buffer (20 mM NH4Cl, 80 mM NaCl, 50 mM HEPES, 5 mM KCl, 2 mM CaCl2, 1 mM MgCl2, pH 7.4) containing 5 μM bis(acetoxymethyl) 3,3′-(3′,6′-bis(acetoxymethoxy)-5-((acetoxymethoxy)carbonyl)-3-oxo-3H-spiro[isobenzofuran-1,9′-xanthene]-2′,7′-diyl)dipropanoate (BCECF-AM).
Cells were washed twice with Ammonium free, Na^+-free HEPES (100 mM choline, 50 mM HEPES, 10 mM glucose, 5 mM KCl, 2 mM CaCl2, 1 mM MgCl2, pH 7.4) and incubated in the same buffer for 10 minutes at room temperature to lower intracellular pH. […] Initial rates were plotted as the average 2 or more replicates, and pIC50 values were estimated using GraphPad Prism.
Cell-based activity of NHE3 Activity under ‘Prompt’ Conditions. This assay was performed as described in Example 1 (supra).

[2] = system: absorption of sodium from the intestinal lumen; assay: Fecal form score (FFS) 16 h after oral dose in rats; type: in vivo, rat; settings: oral gavage, 16 h post-dose, scale 1-5
Procedure: as §1, §2

[3] = system: phosphorus and calcium levels in the urine of rats; assay: Urinary excretion of phosphate and calcium in rats (16 h overnight urine); type: in vivo, rat; settings: rats, oral gavage, 16 h post-dose

T1 sequence (P26433 29-831): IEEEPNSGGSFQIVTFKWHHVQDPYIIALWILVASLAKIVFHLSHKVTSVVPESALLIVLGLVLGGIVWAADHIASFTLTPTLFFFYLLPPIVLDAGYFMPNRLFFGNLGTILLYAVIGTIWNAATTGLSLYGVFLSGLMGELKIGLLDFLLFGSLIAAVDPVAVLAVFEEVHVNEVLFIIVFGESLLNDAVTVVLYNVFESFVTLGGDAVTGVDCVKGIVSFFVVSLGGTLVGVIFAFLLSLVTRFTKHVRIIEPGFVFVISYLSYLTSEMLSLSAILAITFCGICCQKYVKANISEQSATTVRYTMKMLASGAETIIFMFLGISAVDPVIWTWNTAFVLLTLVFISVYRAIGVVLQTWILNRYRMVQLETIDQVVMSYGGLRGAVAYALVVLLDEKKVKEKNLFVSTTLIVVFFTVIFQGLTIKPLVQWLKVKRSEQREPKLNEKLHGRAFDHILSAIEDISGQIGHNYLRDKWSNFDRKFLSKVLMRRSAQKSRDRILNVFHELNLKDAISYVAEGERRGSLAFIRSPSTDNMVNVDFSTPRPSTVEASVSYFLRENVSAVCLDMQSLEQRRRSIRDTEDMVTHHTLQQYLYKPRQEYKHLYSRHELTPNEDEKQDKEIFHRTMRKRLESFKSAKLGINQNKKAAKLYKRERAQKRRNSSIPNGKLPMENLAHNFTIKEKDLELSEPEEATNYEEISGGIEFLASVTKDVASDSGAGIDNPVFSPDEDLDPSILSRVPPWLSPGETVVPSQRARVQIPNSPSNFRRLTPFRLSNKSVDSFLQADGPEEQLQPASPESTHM

| Structure (SMILES) | Prompt Rat NHE3 pIC50 (Rat NHE3) | Urine Na % of control ([1]; dose 10 mg/kg) [%] | Fecal Form Score average ([2]; dose 10 mg/kg) | Urine P % of control ([3]; dose 10 mg/kg) [%] | Urine Na % of control ([1]; dose 3 mg/kg) [%] | Fecal Form Score average ([2]; dose 3 mg/kg) | Urine P % of control ([3]; dose 3 mg/kg) [%] | Urine Na % of control ([1]; dose 1 mg/kg) [%] | Fecal Form Score average ([2]; dose 1 mg/kg) | Urine P % of control ([3]; dose 1 mg/kg) [%] |
| --- | --- | --- | --- | --- | --- | --- | --- | --- | --- | --- |
| CC(C)CCC[C@@H](C)[C@H]1CC[C@H]2[C@@H]3CC=C4C[C@@H](OC(=O)NCCOCCOCCOCCNS(=O)(=O)c5cccc([C@@H]6CN(C)Cc7c(Cl)cc(Cl)cc76)c5)CC[C@]4(C)[C@H]3CC[C@]12C [compound 125] | <5.00 | 81 | 1 | 278 | – | – | – | – | – | – |
| CN1Cc2c(Cl)cc(Cl)cc2[C@H](c2cccc(S(=O)(=O)NCCOCCOCCNC(=O)NCCN(CCNC(=O)NCCOCCOCCNS(=O)(=O)c3cccc([C@@H]4CN(C)Cc5c(Cl)cc(Cl)cc54)c3)C(=O)NCCOCCOCCN)c2)C1 [compound 108] | 8.40 | – | – | – | 13 | 4 | 51 | – | – | – |
| CN(CC(=O)NCCOCCOCCNS(=O)(=O)c1ccc(O[C@H]2c3ccccc3C[C@@H]2N2CCCCC2)cc1)CC(=O)NCCOCCOCCNS(=O)(=O)c1ccc(O[C@H]2c3ccccc3C[C@@H]2N2CCCCC2)cc1 (racemic) [compound 50] | – | 82 | 1 | 50 | – | – | – | – | – | – |
| CC(C)CCC[C@@H](C)[C@H]1CC[C@H]2[C@@H]3CC=C4C[C@@H](OC(=O)NCCOCCOCCNC(=O)N(CCNC(=O)NCCOCCOCCNS(=O)(=O)c5cccc([C@@H]6CN(C)Cc7c(Cl)cc(Cl)cc76)c5)CCNC(=O)NCCOCCOCCNS(=O)(=O)c5cccc([C@@H]6CN(C)Cc7c(Cl)cc(Cl)cc76)c5)CC[C@]4(C)[C@H]3CC[C@]12C [compound 121] | <5.00 | – | – | – | 92 | 1 | 151 | – | – | – |
| CN1Cc2c(Cl)cc(Cl)cc2[C@H](c2cccc(S(=O)(=O)NCCOCCOCCNC(=O)CCC(CCC(=O)NCCOCCOCCNS(=O)(=O)c3cccc([C@@H]4CN(C)Cc5c(Cl)cc(Cl)cc54)c3)(CCC(=O)NCCOCCOCCNS(=O)(=O)c3cccc([C@@H]4CN(C)Cc5c(Cl)cc(Cl)cc54)c3)NC(=O)[C@H]3CCCC[C@@H]3C(=O)O)c2)C1 (racemic) [compound 141] | – | – | – | – | 63 | 2 | 24 | – | – | – |
| CN1Cc2c(Cl)cc(Cl)cc2[C@H](c2cccc(S(=O)(=O)NCCOCCOCCNC(=O)NCCN(CCNC(=O)NCCOCCOCCNS(=O)(=O)c3cccc([C@@H]4CN(C)Cc5c(Cl)cc(Cl)cc54)c3)C(=O)NCCOCCOCCNC(=O)c3ccc(-c4ccc(Cl)cc4)cc3)c2)C1 [compound 110] | 5.80 | – | – | – | 63 | 1 | 68 | – | – | – |
| CN1Cc2c(Cl)cc(Cl)cc2C(c2cccc(S(=O)(=O)NCCOCCOCCNC(=O)CN(CCOCCOCCOCCN)CC(=O)NCCOCCOCCNS(=O)(=O)c3cccc([C@@H]4CN(C)Cc5c(Cl)cc(Cl)cc54)c3)c2)C1 (stereo in doubt) [compound 120] | 7.80 | – | – | – | 71 | 1 | 71 | – | – | – |
| CN1Cc2c(Cl)cc(Cl)cc2C(c2cccc(S(N)(=O)=O)c2)C1 (stereo not drawn) [compound 1] | 6.60 | 87 | 1 | 52 | – | – | – | – | – | – |

Second part, led by results:

| Prompt Rat NHE3 pIC50 (Rat NHE3) | Structure (SMILES) | Urine Na % of control ([1]; dose 10 mg/kg) [%] | Fecal Form Score average ([2]; dose 10 mg/kg) | Urine P % of control ([3]; dose 10 mg/kg) [%] | Urine Na % of control ([1]; dose 3 mg/kg) [%] | Fecal Form Score average ([2]; dose 3 mg/kg) | Urine P % of control ([3]; dose 3 mg/kg) [%] | Urine Na % of control ([1]; dose 1 mg/kg) [%] | Fecal Form Score average ([2]; dose 1 mg/kg) | Urine P % of control ([3]; dose 1 mg/kg) [%] |
| --- | --- | --- | --- | --- | --- | --- | --- | --- | --- | --- |
| 6.70 | CCC(=O)NCCOCCOCCOCCNS(=O)(=O)c1cccc([C@@H]2CN(C)Cc3c(Cl)cc(Cl)cc32)c1 [compound 103] | 40 | 1 | 71 | – | – | – | – | – | – |
| 6.60 | CCCCCCCCOCCOCCOCCOCCOCCOC(=O)NCCOCCOCCOCCNS(=O)(=O)c1cccc([C@@H]2CN(C)Cc3c(Cl)cc(Cl)cc32)c1 [compound 102] | 86 | 1 | 92 | – | – | – | – | – | – |
| 6.70 | C=CC(=O)NCCOCCOCCOCCNS(=O)(=O)c1cccc([C@@H]2CN(C)Cc3c(Cl)cc(Cl)cc32)c1 [compound 104] | 56 | 2 | 62 | – | – | – | – | – | – |
| 5.90 | CN1Cc2c(Cl)cc(Cl)cc2[C@H](c2cccc(S(=O)(=O)NCCOCCOCCNC(=O)CN(CCOCCOCCOCCNC(=O)c3ccc(-c4ccc(Cl)cc4)cc3)CC(=O)NCCOCCOCCNS(=O)(=O)c3cccc([C@@H]4CN(C)Cc5c(Cl)cc(Cl)cc54)c3)c2)C1 [compound 105] | – | – | – | 119 | 1 | 154 | – | – | – |
| 7.30 | CN1Cc2c(Cl)cc(Cl)cc2[C@@H](c2cccc(S(=O)(=O)NCCOCCOCCNC(=O)NCCCCNC(=O)NCCOCCOCCNS(=O)(=O)c3cccc([C@@H]4CN(C)Cc5c(Cl)cc(Cl)cc54)c3)c2)C1 [compound 39] | 68 | 1 | 130 | – | – | – | 71 | 1 | 166 |
| <5.00 | CN1Cc2c(Cl)cc(Cl)cc2[C@H](c2cccc(S(=O)(=O)NCCOCCOCCOCCNC(=O)c3ccc(-c4ccc(Cl)cc4)cc3)c2)C1 [compound 93] | 78 | 1 | 75 | – | – | – | – | – | – |
| <5.00 | CN1Cc2c(Cl)cc(Cl)cc2[C@H](c2cccc(S(=O)(=O)NCCOCCOCCOCCNCc3ccc(-c4ccc(Cl)cc4)cc3)c2)C1 [compound 112] | 73 | 1 | 67 | – | – | – | – | – | – |
| <5.00 | CCCCCCCCCCC(=O)NCCOCCOCCOCCNS(=O)(=O)c1cccc([C@@H]2CN(C)Cc3c(Cl)cc(Cl)cc32)c1 [compound 92] | 62 | 1 | 70 | – | – | – | – | – | – |
| <5.00 | CCCCCCCCOc1ccc(CNCCOCCOCCOCCNS(=O)(=O)c2cccc([C@@H]3CN(C)Cc4c(Cl)cc(Cl)cc43)c2)cc1 [compound 111] | 60 | 2 | 69 | – | – | – | – | – | – |
